Data as given in patent US20240210412A1, “SULFONYL-TRIAZOLE COMPOUNDS USEFUL AS LIGANDS AND INHIBITORS OF PROSTAGLANDIN REDUCTASE 2” (University of Virginia Patent Foundation, priority 2021, published 2024).

Columns and labels:
Test in all cases: SILAC LC-MS ABPP
Assay type in all cases: cell-based
Conditions in all cases: 25 μM 2 h, live DM93 cells
P11216 = molecular target: T1, P11216 (Homo sapiens, UniProt P11216)
T1 construct: endogenous in cells; host or cells: DM93 cells (SILAC)
Description: (§1) Cells were grown to 90-95% confluence before being washed once with warm, sterile DPBS (1×, 5 mL), followed by addition of 10 mL of serum-free media (supplemented with 1% L-glutamine) containing either DMSO or SuTEx fragment (in DMSO) was added. Light cells were treated with DMSO vehicle while the heavy cells were treated with DMSO or SuTEx fragment (in DMSO) and incubated for 2 hrs. After 2 hrs, the cells were treated with SuTEx alkyne probe (HHS475, 10 μL of 1000× DMSO stock) and incubated for an additional 2 hrs. The media was aspirated and cells washed with cold PBS (5 mL) and harvested. Cells were spun at 500×g for 5 min at 4° C. followed by removal of supernatant. Pellets were resuspended in 1 mL of cold DPBS and spun at 1,400×g for 3 min at 4° C. followed by removal of supernatant. The cells were lysed in PBS by sonication and fractionated (100,000×g, 45 min, 4° C.).The light and heavy soluble fractions were diluted to 2.3 mg/mL in PBS and 432 μL were used for analysis (1 mg total protein). The probe-modified proteomes were conjugated to desthiobiotin-PEG3-azide (10 μl of 10 mM stock in DMSO; 200 μM final concentration) using TCEP (10 μl of fresh 50 mM stock in water, 1 mM final concentration), TBTA ligand (33 μl of a 1.7 mM 4:1 t-butanol/DMSO stock, 100 μM final concentration) and CuSO4 (10 μl of 50 mM stock, 1 mM final concentration). Samples were vortexed to mix and incubated for 1 hr at room temperature. The heavy and light proteomes were mixed 1:1 and the subsequent steps, including LC-MS/MS data analysis, were performed as previously described^[8a].
(§2) Coupling cell-based screens with chemical proteomics can facilitate the identification of target protein and binding sites that engage and are irreversibly modified by covalent ligands^[12]. In these assays, covalent ligands block SuTEx activity-based probe (ABP) labeling at protein sites, and the competition of probe labeling can be used to quantify potency and selectivity across the proteome^[10a]. To facilitate quantitative chemical proteomics, DM93 melanoma cells were cultured using stable isotopic labeling by amino acids in cell culture (SILAC)^[13]. Cells cultured in “light” media were treated with dimethyl sulfoxide (DMSO) vehicle while cells cultured in “heavy” media were treated with SuTEx ligand (25 μM, 2 hours, 37° C.). Next, cells were treated with HHS-475 probe (100 μM, 2 hours, 37° C.) followed by lysis and processing of proteomes for analysis. Probe-modified proteins from the soluble fraction were conjugated to a desthiobiotin-azide tag by copper-catalyzed azide-alkyne cycloaddition (CuAAC)^[14] followed by mixing of the light and heavy proteomes. The combined proteomes were digested with trypsin protease to produce probe-modified peptides, followed by enrichment and purification by avidin affinity chromatography. Probe-modified peptides were resolved, identified, and quantified by high-resolution liquid chromatography-tandem mass spectrometry (LC-MS/MS). Resultant data were analyzed as previously described^[8a, 10a]. Table 2, below, lists sites of modification targeted by sulfonyl-triazole compounds HHS-0101, HHS-0201, HHS-0301, HHS-0401, and HHS-0701. The format of the table is as follows: protein Uniprot accession number (see uniprot.org); tyrosine site (amino acid position) modified; treatment (sulfonyl-triazole compound identification number, followed by Y (where if multiple compounds modify the same site, the compounds are separated by vertical lines).

Q93052 = molecular target: T2, Q93052 (Homo sapiens, UniProt Q93052)
T2 construct: endogenous in cells; host or cells: DM93 cells (SILAC), live-cell treatment
T2 sequence (Q93052 1-612): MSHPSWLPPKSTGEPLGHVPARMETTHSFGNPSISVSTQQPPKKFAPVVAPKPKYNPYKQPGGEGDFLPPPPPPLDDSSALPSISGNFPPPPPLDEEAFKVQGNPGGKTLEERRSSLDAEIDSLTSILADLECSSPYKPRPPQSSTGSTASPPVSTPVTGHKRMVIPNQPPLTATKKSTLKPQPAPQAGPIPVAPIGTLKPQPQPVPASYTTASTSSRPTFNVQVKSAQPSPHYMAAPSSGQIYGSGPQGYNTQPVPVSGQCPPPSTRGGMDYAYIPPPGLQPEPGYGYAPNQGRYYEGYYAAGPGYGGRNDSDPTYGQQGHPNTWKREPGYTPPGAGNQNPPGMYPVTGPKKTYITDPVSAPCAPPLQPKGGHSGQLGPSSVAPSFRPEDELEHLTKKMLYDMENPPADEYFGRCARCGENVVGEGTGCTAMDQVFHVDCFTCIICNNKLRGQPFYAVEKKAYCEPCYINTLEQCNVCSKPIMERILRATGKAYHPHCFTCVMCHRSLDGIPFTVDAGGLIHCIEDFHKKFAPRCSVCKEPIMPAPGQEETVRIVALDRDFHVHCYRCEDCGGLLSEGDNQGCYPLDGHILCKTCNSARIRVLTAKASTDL
Description: as §1, §2

Q04637 = molecular target: T3, Q04637 (Homo sapiens, UniProt Q04637)
T3 construct: performing SuTEx compound screening directly in cells; endogenous in cells; host or cells: DM93 cells (SILAC)
T3 sequence (Q04637 whole entry): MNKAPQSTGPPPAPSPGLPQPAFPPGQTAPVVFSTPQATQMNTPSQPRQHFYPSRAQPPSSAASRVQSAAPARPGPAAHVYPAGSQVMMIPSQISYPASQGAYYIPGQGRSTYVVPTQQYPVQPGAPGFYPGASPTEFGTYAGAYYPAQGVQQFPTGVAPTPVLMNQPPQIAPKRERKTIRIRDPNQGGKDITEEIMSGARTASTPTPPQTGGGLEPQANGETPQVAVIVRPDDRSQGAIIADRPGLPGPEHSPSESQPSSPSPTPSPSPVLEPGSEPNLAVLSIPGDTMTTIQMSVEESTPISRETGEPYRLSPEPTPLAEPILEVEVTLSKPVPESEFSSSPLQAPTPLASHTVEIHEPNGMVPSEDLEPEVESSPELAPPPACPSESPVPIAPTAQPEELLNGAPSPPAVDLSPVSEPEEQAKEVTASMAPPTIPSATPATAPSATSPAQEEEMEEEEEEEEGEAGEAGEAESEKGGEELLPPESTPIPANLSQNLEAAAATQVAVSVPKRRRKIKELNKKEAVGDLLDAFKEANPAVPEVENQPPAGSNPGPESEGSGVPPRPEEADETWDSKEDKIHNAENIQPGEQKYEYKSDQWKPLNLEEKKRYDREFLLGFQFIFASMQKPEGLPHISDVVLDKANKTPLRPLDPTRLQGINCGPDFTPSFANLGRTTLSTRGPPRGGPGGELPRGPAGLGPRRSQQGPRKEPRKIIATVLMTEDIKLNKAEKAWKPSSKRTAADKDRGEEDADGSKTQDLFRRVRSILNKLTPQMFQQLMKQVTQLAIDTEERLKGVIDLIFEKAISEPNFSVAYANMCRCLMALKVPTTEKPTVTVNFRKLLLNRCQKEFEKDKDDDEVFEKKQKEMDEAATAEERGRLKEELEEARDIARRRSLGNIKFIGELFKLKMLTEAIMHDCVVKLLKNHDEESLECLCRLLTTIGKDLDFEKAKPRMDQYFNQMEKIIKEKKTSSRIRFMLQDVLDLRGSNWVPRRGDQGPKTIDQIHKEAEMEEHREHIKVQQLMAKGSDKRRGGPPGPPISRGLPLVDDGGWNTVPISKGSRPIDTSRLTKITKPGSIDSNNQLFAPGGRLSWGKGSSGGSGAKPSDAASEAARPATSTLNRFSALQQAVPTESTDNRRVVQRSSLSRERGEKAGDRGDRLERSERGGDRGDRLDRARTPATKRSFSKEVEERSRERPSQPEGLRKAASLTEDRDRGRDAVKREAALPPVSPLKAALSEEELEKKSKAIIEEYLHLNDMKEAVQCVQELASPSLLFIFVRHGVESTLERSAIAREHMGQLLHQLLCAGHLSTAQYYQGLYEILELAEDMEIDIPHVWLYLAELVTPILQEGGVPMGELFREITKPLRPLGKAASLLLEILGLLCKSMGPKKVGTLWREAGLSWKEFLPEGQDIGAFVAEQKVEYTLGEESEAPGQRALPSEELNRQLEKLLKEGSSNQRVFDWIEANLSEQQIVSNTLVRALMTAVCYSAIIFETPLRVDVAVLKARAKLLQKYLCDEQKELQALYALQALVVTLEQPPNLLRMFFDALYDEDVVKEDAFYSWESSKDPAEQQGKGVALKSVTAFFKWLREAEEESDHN
Description: as §1, §2

Q9ULV4 = molecular target: T4, Q9ULV4 (Homo sapiens, UniProt Q9ULV4)
T4 construct: endogenous in cells; host or cells: DM93 cells (SILAC)
T4 sequence (Q9ULV4 whole entry): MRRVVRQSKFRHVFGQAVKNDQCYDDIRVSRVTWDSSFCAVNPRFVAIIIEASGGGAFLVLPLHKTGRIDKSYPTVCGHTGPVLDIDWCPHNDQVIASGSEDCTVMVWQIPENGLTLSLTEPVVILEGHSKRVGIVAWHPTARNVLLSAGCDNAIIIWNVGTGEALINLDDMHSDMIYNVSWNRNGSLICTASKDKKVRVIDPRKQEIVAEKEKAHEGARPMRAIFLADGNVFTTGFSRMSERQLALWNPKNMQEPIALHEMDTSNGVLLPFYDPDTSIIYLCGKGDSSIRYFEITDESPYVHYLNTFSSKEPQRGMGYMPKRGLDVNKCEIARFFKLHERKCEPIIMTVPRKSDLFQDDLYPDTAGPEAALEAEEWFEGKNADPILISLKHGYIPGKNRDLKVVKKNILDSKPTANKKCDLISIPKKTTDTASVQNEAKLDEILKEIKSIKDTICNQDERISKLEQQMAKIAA
Description: as §1, §2

T1 sequence (P11216 whole entry): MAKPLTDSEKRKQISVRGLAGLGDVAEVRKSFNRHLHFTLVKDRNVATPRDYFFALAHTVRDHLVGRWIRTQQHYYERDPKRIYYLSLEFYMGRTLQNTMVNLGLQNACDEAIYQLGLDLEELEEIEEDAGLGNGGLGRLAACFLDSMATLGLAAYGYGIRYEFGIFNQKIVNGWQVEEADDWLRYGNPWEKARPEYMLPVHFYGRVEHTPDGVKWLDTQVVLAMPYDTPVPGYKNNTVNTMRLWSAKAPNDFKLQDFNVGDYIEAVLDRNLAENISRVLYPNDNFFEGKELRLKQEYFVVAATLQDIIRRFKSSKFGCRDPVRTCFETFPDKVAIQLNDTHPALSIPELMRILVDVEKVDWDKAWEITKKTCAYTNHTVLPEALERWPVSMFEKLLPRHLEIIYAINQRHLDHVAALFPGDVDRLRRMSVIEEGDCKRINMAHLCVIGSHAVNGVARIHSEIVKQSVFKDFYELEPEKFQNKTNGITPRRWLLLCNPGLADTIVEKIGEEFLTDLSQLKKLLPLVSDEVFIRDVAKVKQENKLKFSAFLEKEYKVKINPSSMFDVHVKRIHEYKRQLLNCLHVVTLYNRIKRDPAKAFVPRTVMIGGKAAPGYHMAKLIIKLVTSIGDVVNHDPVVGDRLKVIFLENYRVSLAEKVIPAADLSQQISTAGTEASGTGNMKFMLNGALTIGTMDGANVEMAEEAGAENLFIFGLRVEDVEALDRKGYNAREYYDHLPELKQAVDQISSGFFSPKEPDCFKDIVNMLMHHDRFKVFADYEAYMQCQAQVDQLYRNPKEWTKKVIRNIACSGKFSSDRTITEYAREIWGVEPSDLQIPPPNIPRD

With `O=C(NC1CC1)c1ccc(S(=O)(=O)n2cncn2)cc1` [HHS-0101, 4-((1H-1,2,4-triazol-1-yl)sulfonyl)-N-cyclopropylbenzamide] the “liganded tyrosine site 473” value (P11216) was “HHS0101.Y (tyrosine sites that showed >80% reductions (SR >5) in probe labeling in cells treated with compounds (liganded sites))”, the “liganded tyrosine site 251” value (Q93052) was “HHS0101.Y|HHS0401.Y (tyrosine sites that showed >80% reductions (SR >5) in probe labeling in cells treated with compounds (liganded sites))” and the “liganded tyrosine site 332” value (Q93052) was “HHS0101.Y (tyrosine sites that showed >80% reductions (SR >5) in probe labeling in cells treated with compounds (liganded sites))”.
With `O=C(NCC1CC1)c1ccc(S(=O)(=O)n2cncn2)cc1` [HHS-0201, 4-((1H-1,2,4-triazol-1-yl)sulfonyl)-N-(cyclopropylmethyl)benzamide] the “liganded tyrosine site 103” value (Q04637) was “HHS0201.Y|HHS0301.Y|HHS0401.Y|HHS0701.Y (tyrosine sites that showed >80% reductions (SR >5) in probe labeling in cells treated with compounds (liganded sites))” and the “liganded tyrosine site 204” value (P11216) was “HHS0201.Y (tyrosine sites that showed >80% reductions (SR >5) in probe labeling in cells treated with compounds (liganded sites))”.
For `O=C(NC1CCCCC1)c1ccc(S(=O)(=O)n2cncn2)cc1` [HHS-0301, 4-((1H-1,2,4-triazol-1-yl)sulfonyl)-N-cyclohexylbenzamide], the “liganded tyrosine site 81” value (Q04637) was “HHS0301.Y (tyrosine sites that showed >80% reductions (SR >5) in probe labeling in cells treated with compounds (liganded sites))”, the “liganded tyrosine site 104” value (Q04637) was “HHS0301.Y|HHS0701.Y (tyrosine sites that showed >80% reductions (SR >5) in probe labeling in cells treated with compounds (liganded sites))” and the “liganded tyrosine site 301” value (Q9ULV4) was “HHS0301.Y (tyrosine sites that showed >80% reductions (SR >5) in probe labeling in cells treated with compounds (liganded sites))”. For the same compound, the “liganded tyrosine site 234” value (Q93052) was “HHS0301.Y|HHS0401.Y (tyrosine sites that showed >80% reductions (SR >5) in probe labeling in cells treated with compounds (liganded sites))”.
For `O=C(c1ccc(S(=O)(=O)n2cncn2)cc1)N1CCC(c2ccccc2)CC1` [HHS-0701, (4-((1H-1,2,4-triazol-1-yl)sulfonyl)phenyl)(4-phenylpiperidin-1-yl)methanone], the “liganded tyrosine site 304” value (Q9ULV4) was “HHS0701.Y (tyrosine sites that showed >80% reductions (SR >5) in probe labeling in cells treated with compounds (liganded sites))”.
